According to patent publication US7550629B2, “Trifluoromethyl-containing phenylsulfonamide beta amyloid inhibitors” (Wyeth, priority 2006, dated 2009):

Tests used:
beta amyloid 40 = test: Aβ40/42 ELISA Assay: Aβ40; format: cell-based; conditions: Cricetulus griseus; CHO cells carrying the APP-REP-NL plasmid, 22 hours, sandwich ELISA of medium
Description: (§1) Pharmacology: Aβ40/42 ELISA Assay
(§2) Compounds are diluted from DMSO stocks to 2 μM and below in a cell culture medium. Compounds are then applied to CHO cells carrying the APP-REP-NL plasmid [Sudhir et. al, J. Biol. Chem. 267:25602-25608 (1992)] for a period of 22 hours. After the conditioning period, medium is collected, diluted in assay buffer containing protein, and samples, controls, and synthetic peptide standards are incubated on a prepared ELISA plate. Using a sandwich ELISA with antibodies specifically directed against the carboxyl terminus of beta amyloid 40 or 42 [analogous to the method reported by Haugabook et al., J. Neurosci. Methods 108:171-179 (2001) but using goat anti-mouse IgGl (source: Southern Biotech) as the anchor, 6E10 as the capture antibody (Source: SENETEK), rabbit antiαβ40 and antiαβB42 (source: QCB) and APL-donkey anti-rabbit IgG (H+L, source: Southern Biotech) as the detection antibody], the effect of the compound treatment on the cellular production of extracellular beta amyloid is quantified. Cells treated with compound are subsequently incubated in cell culture medium containing […]. After a short incubation period, MTS/medium containing plates are read in a spectrophotometer to determine the extent to which compound toxicity affected the cell's metabolism and ability to synthesize beta amyloid.
(§3) Test Samples: compound samples are supplied as 20 mM stock solutions in a 100% DMSO solution.
(§4) APP-REP-NL cells: Qualified cell lines are carried from week to week using 1:100 dilutions and are cultured in DMEM supplemented with 1× antibiotic/antimycotic, 200 μg/ml of G418 antibiotic, and 10% certified fetal calf serum. Cells are also banked in liquid nitrogen. Periodically, beta amyloid production is assessed, and cells are either kept in culture or replaced with progenitors at full expression.
(§5) Antibodies: Are from certified lots that have already been qualified in this assay. Antibodies are stored in small frozen aliquots at −80° C. that are thawed and used.
(§6) A compound is considered active if it has an EC50 for Aβ 40 reduction of <100 μM and no toxicity at doses in the vicinity the EC50.

beta amyloid 42 = test: Aβ40/42 ELISA Assay: Aβ42; format: cell-based; conditions: Cricetulus griseus; CHO cells carrying the APP-REP-NL plasmid, 22 hours, sandwich ELISA of medium
Description: as §1, §2, §3, §4, §5, §6

Row | Structure (SMILES) | EC50 (beta amyloid 40) [µM] | EC50 (beta amyloid 42) [µM] | melting point [°C]
1 | O=S(=O)(N[C@H](CO)C(CC(F)(F)F)CC(F)(F)F)c1ccc(Cl)cc1 [Example 2, 4-Chloro-N-[(1S)-4,4,4-trifluoro-1-hydroxymethyl-2-(2,2,2-trifluoro-ethyl)-butyl]-benzenesulfonamide] | 0.334 | 0.204 | 186 to 187
2 | O=S(=O)(NC(CO)C(C(F)(F)F)C(F)(F)F)c1ccc(F)c(F)c1 (centres unmarked) [Example 34, 3,4-difluoro-N-(3,3,3-trifluoro-1-hydroxymethyl-2-trifluoromethyl-propyl)-benzenesulfonamide] | 2.22 | 2.4 | 
3 | CC(C)c1ccc(S(=O)(=O)NC(CO)C(C(F)(F)F)C(F)(F)F)cc1 (centres unmarked) [Example 10, 4-isopropyl-N-[3,3,3-trifluoro-1-(hydroxymethyl)-2-(trifluoromethyl)propyl]benzenesulfonamide] | 17.7 | 44.1 | 
4 | Cc1cccc(S(=O)(=O)NC(CO)C(C(F)(F)F)C(F)(F)F)c1 (centres unmarked) [Example 15, 3-methyl-N-[3,3,3-trifluoro-1-(hydroxymethyl)-2-(trifluoromethyl)propyl]benzenesulfonamide] | 15.1 | 14.5 | 
5 | O=S(=O)(NC(CO)C(C(F)(F)F)C(F)(F)F)c1cccc(F)c1 (centres unmarked) [Example 27, 3-fluoro-N-(3,3,3-trifluoro-1-hydroxymethyl-2-trifluoromethyl-propyl)-benzenesulfonamide] | 9.08 | 12.1 | 
6 | O=S(=O)(NC(CO)C(C(F)(F)F)C(F)(F)F)c1ccc(C(F)(F)F)cc1 (centres unmarked) [Example 17, N-[3,3,3-trifluoro-1-(hydroxymethyl)-2-(trifluoromethyl)propyl]-4-(trifluoromethyl)benzenesulfonamide] | 2.29 | 1.94 | 
7 | O=S(=O)(NC(CO)C(C(F)(F)F)C(F)(F)F)c1cccc(Br)c1 (centres unmarked) [Example 32, 3-bromo-N-(3,3,3-trifluoro-1-hydroxymethyl-2-trifluoromethyl-propyl)-benzenesulfonamide] | 19.8 | 25.3 | 
8 | Cc1ccc(S(=O)(=O)NC(CO)C(C(F)(F)F)C(F)(F)F)cc1 (centres unmarked) [Example 14, 4-methyl-N-[3,3,3-trifluoro-1-(hydroxymethyl)-2-(trifluoromethyl)propyl]benzenesulfonamide] | 1.5 | 1.26 | 
9 | O=S(=O)(NC(CO)C(C(F)(F)F)C(F)(F)F)c1cccc(Cl)c1 (centres unmarked) [Example 29, 3-chloro-N-(3,3,3-trifluoro-1-hydroxymethyl-2-trifluoromethyl-propyl)-benzenesulfonamide] | 24.2 | 37.2 | 
10 | C[C@@H]([C@@H](CO)NS(=O)(=O)c1ccc(F)cc1)C(F)(F)F [Example 48, 4-Fluoro-N-[(1S,2S)-3,3,3-trifluoro-1-(hydroxymethyl)-2-methylpropyl]benzenesulfonamide] | 0.651 | 0.563 | 
11 | O=S(=O)(NC(CO)C(C(F)(F)F)C(F)(F)F)c1ccc(Cl)cc1 (centres unmarked) [Example 21, 4-chloro-N-(3,3,3-trifluoro-1-hydroxymethyl-2-trifluoromethyl-propyl)-benzenesulfonamide] | 0.997 | 0.932 | 
12 | O=S(=O)(NC(CO)C(C(F)(F)F)C(F)(F)F)c1ccc(Br)cc1 (centres unmarked) [Example 31, 4-bromo-N-(3,3,3-trifluoro-1-hydroxymethyl-2-trifluoromethyl-propyl)-benzenesulfonamide] | 0.886 | 0.905 | 
13 | O=S(=O)(N[C@H](CO)C(C(F)(F)F)C(F)(F)F)c1ccc(Cl)cc1 [Example 1, 4-Chloro-N-[(1S)-3,3,3-trifluoro-1-(hydroxymethyl)-2-(trifluoromethyl)propyl]benzenesulfonamide] | 0.22 | 0.177 | 
14 | O=S(=O)(NC(CO)C(C(F)(F)F)C(F)(F)F)c1ccc(Cl)c(C(F)(F)F)c1 (centres unmarked) [Example 4, 4-Chloro-N-(3,3,3-trifluoro-1-hydroxymethyl-2-trifluoromethyl-propyl)-3-trifluoromethyl-benzenesulfonamide] | 37.7 | 89.9 | 
15 | COc1cc(S(=O)(=O)NC(CO)C(C(F)(F)F)C(F)(F)F)ccc1Cl (centres unmarked) [Example 3, 4-Chloro-3-methoxy-N-(3,3,3-trifluoro-1-hydroxymethyl-2-trifluoromethyl-propyl)-benzenesulfonamide] | 9.94 | 13.8 | 
16 | O=S(=O)(NC(CO)C(C(F)(F)F)C(F)(F)F)c1cc(F)c(F)c(F)c1 (centres unmarked) [Example 42, 3,4,5-Trifluoro-N-(3,3,3-trifluoro-1-hydroxymethyl-2-trifluoromethyl-propyl)-benzene sulfonamide] | 6.63 | 5.5 | 
17 | C[C@@H]([C@@H](CO)NS(=O)(=O)c1ccc(C(F)(F)F)cc1)C(F)(F)F [Example 47, N-[(1S,2S)-3,3,3-Trifluoro-1-(hydroxymethyl)-2-methylpropyl]-4-(trifluoromethyl)benzenesulfonamide] | 1.4 | 1.17 | 
